Earlier results as cited in patent US5599811A, “Benzothiazine dioxides as endothelin antagonists” (Warner-Lambert Company, priority 1995, dated 1997).
Like-named read-outs stand apart in the source and are kept apart here. Where a SMILES comes first, the peptide text is derived from it. [ ]: non-standard residue; d: D form.

Experiments:
basilar artery [1] = conditions: after 7 days, canine two-hemorrhage model of SAH; cited from earlier work
subarachnoid hemorrhage = conditions: rats; cited from earlier work
[2] = tested on: cerebral vasospasm following SAH; conditions: rat; cited from earlier work
acute renal ischemia = conditions: rats; cited from earlier work
basilar artery [3] = conditions: rabbits with SAH; cited from earlier work
congestive heart failure = conditions: rat, in vivo; cited from earlier work
[4] = tested on: cerebral vasospasm following SAH; conditions: rabbit; cited from earlier work
allergic sheep = conditions: cited from earlier work
[5] = tested on: cerebral vasospasm following subarachnoid hemorrhage; conditions: in vivo; cited from earlier work
[6] = tested on: ischemia-induced acute renal failure; conditions: anesthetized dogs (title of citation); cited from earlier work

## FR 139317
Basilar artery [1]
  inhibition of vasoconstriction of the basilar artery: significantly inhibited the vascoconstriction of the basilar artery

## COc1cccc(Oc2c(NS(=O)(=O)c3ccc(C(C)(C)C)cc3)ncnc2OCCO)c1 [Ro 46-2005]
Subarachnoid hemorrhage
  effect in model of subarachnoid hemorrhage: effective
[2]
  prevention of early cerebral vasospasm following SAH: prevent early cerebral vasospasm following SAH
Acute renal ischemia
  effect in model of acute renal ischemia: effective

## COc1ccccc1Oc1c(NS(=O)(=O)c2ccc(C(C)(C)C)cc2)nc(-c2ncccn2)nc1OCCO [Bosentan]
Basilar artery [3]
  reduction of basilar artery cross-sectional area compared to sham rabbits: 36±7%
Congestive heart failure
  treatment of congestive heart failure: useful in the treatment of congestive heart failure

## CC(C)C[C@@H]1NC(=O)[C@@H](C(C)C)NC(=O)[C@@H]2CCCN2C(=O)[C@@H](CC(=O)O)NC(=O)[C@@H](Cc2c[nH]c3ccccc23)NC1=O [BQ-123] (cyclo(L[dW][dD]P[dV]))
[4]
  prevention of early cerebral vasospasm following SAH: prevents early cerebral vasospasm following SAH
[2]
  prevention of early cerebral vasospasm following SAH: prevents early cerebral vasospasm following SAH
Allergic sheep
  block of ET-1-induced bronchoconstriction and tracheal smooth muscle contraction: block ET-1-induced bronchoconstriction and tracheal smooth muscle contraction
[5]
  prevention of early cerebral vasospasm following subarachnoid hemorrhage: prevent early cerebral vasospasm following subarachnoid hemorrhage

## CCCOc1ccc2c(c1)[C@@H](c1ccc(OC)cc1OCC(=O)O)[C@H](C(=O)O)[C@H]2c1ccc2c(c1)OCO2 [SB 209670]
[6]
  effect in ischemia-induced acute renal failure: beneficial in ischemia-induced acute renal failure
